Source: ChEMBL document CHEMBL6134817, “Novel gut-restricted bivalent agonists targeting mucosal 5-HT4R: Design, synthesis, and biological evaluation” (Eur J Med Chem, 2025)

What was measured:
[1] = molecular target: T1, 5-hydroxytryptamine receptor 4 (Homo sapiens, UniProt Q13639); experiment: Agonist activity at full-length human 5-HT4R stably expressed in HEK293 cells assessed as increase in intracellular cAMP level incubated for 30 mins under dark condition by reporter gene assay relative to control; format: functional, cell-based
[2] = molecular target: T1, 5-hydroxytryptamine receptor 4; experiment: Agonist activity at full-length human 5-HT4R stably expressed in HEK293 cells assessed as increase in intracellular cAMP level incubated for 30 mins under dark condition by reporter gene assay; format: functional, cell-based
[3] = molecular target: T1, 5-hydroxytryptamine receptor 4; experiment: Displacement of [3H]-GR113808 from full-length human 5-HT4R stably expressed in HEK293 cell membrane by MicroBeta2 Reader analysis; format: cell membranes

T1 sequence (Q13639 whole entry): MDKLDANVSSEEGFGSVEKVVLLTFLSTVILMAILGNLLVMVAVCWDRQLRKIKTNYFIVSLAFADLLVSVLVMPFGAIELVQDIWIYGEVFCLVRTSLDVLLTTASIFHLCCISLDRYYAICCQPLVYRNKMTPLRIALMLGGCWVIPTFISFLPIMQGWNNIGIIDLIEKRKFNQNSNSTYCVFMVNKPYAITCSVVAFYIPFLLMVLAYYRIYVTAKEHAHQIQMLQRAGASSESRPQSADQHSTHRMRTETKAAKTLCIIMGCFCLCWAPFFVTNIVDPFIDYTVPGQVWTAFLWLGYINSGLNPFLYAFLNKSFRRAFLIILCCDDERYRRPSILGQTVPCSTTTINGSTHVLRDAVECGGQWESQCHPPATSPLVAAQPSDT

Nc1c(Cl)cc(C(=O)NC2CCN(CCC(=O)NCCOCCOCCNC(=O)COCC(=O)NCCOCCOCCNC(=O)CCN3CCC(NC(=O)c4cc(Cl)c(N)c5c4OCC5)CC3)CC2)c2c1CCO2
Efficacy ([1]; filed as agonist): 104%
EC50 [2]: 4.91 nM

Nc1c(Cl)cc(C(=O)NC2CCN(CCCCCC(=O)NCCOCCOCCNC(=O)NCCCCNC(=O)NCCOCCOCCNC(=O)CCCCCN3CCC(NC(=O)c4cc(Cl)c(N)c5c4OCC5)CC3)CC2)c2c1CCO2
Efficacy ([1]; filed as agonist): 106%
EC50 [2]: 3.81 nM

Nc1c(Cl)cc(C(=O)NCCC2CCN(CCC(=O)NCCOCCOCCNC(=O)NCCCCNC(=O)NCCOCCOCCNC(=O)CCN3CCC(CCNC(=O)c4cc(Cl)c(N)c5c4OCC5)CC3)CC2)c2c1CCO2
Efficacy ([1]; filed as agonist): 102%
EC50 [2]: 81.4 nM

CC(C)n1nc(-c2nnc(C3CCN(CCC(=O)NCCOCCOCCNC(=O)NCCCCNC(=O)NCCOCCOCCNC(=O)CCN4CCC(c5nnc(-c6nn(C(C)C)c7ccccc67)o5)CC4)CC3)o2)c2ccccc21
Efficacy ([1]; filed as agonist): 47.8%
EC50 [2]: > 10000 nM

Nc1c(Cl)cc(C(=O)NCC2CCN(CCCCCC(=O)NCCOCCOCNC(=O)N[C@H]3CC[C@H](NC(=O)NCOCCOCCNC(=O)CCCCCN4CCC(CNC(=O)c5cc(Cl)c(N)c6c5OCC6)CC4)CC3)CC2)c2c1CCO2
Efficacy ([1]; filed as agonist): 104%
EC50 [2]: 1.39 nM

Nc1c(Cl)cc(C(=O)NC2CCN(CCC(=O)NCCOCCOCCNC(=O)c3ccc(C(=O)NCCOCCOCCNC(=O)CCN4CCC(NC(=O)c5cc(Cl)c(N)c6c5OCC6)CC4)cc3)CC2)c2c1CCO2
Efficacy ([1]; filed as agonist): 110%
EC50 [2]: 5.67 nM

Nc1c(Cl)cc(C(=O)NC2CCN(CCC(=O)NCCOCCOCCNC(=O)/C=C/C(=O)NCCOCCOCCNC(=O)CCN3CCC(NC(=O)c4cc(Cl)c(N)c5c4OCC5)CC3)CC2)c2c1CCO2
Efficacy ([1]; filed as agonist): 98%
EC50 [2]: 6.69 nM

Nc1c(Cl)cc(C(=O)NCC2CCN(CCCCCNC(=O)CCOCCOCCNC(=O)NCCCCNC(=O)NCCOCCOCCC(=O)NCCCCCN3CCC(CNC(=O)c4cc(Cl)c(N)c5c4OCC5)CC3)CC2)c2c1CCO2
Efficacy ([1]; filed as agonist): 113%
EC50 [2]: 0.17 nM
Ki [3]: 1.49 nM

Nc1c(Cl)cc(C(=O)NC2CCN(CCCCC(=O)NCCOCCOCCNC(=O)NCCCCNC(=O)NCCOCCOCCNC(=O)CCCCN3CCC(NC(=O)c4cc(Cl)c(N)c5c4OCC5)CC3)CC2)c2c1CCO2
Efficacy ([1]; filed as agonist): 102%
EC50 [2]: 3.02 nM

Nc1c(Cl)cc(C(=O)NC2CCN(CCC(=O)NCCOCCOCCNC(=O)N[C@H]3CC[C@H](NC(=O)NCCOCCOCCNC(=O)CCN4CCC(NC(=O)c5cc(Cl)c(N)c6c5OCC6)CC4)CC3)CC2)c2c1CCO2
Efficacy ([1]; filed as agonist): 122%
EC50 [2]: 6.82 nM

Nc1c(Cl)cc(C(=O)NC2CCN(CCC(=O)NCCOCCOCCNC(=O)C3(C(=O)NCCOCCOCCNC(=O)CCN4CCC(NC(=O)c5cc(Cl)c(N)c6c5OCC6)CC4)CCCC3)CC2)c2c1CCO2
Efficacy ([1]; filed as agonist): 130%
EC50 [2]: 2.99 nM

CN(CCOCCNC(=O)NCCOCCN(C)C(=O)CCCN1CCC(NC(=O)c2cc(Cl)c(N)c3c2OCC3)CC1)C(=O)CCCN1CCC(NC(=O)c2cc(Cl)c(N)c3c2OCC3)CC1
Efficacy ([1]; filed as agonist): 95.3%
EC50 [2]: 0.07 nM
Ki [3]: 98.9 nM

O=C(CCN1CCC(COc2noc3c(O[C@@H]4CCOC4)cccc23)CC1)NCCOCCOCCNC(=O)NCCCCNC(=O)NCCOCCOCCNC(=O)CCN1CCC(COc2noc3cccc(O[C@@H]4CCOC4)c23)CC1
Efficacy [1]: 0.16%
EC50 [2]: > 10000 nM

Nc1c(Cl)cc(C(=O)NC2CCN(CCC(=O)NCCCCCCCCNC(=O)NCCNC(=O)NCCCCCCCCNC(=O)CCN3CCC(NC(=O)c4cc(Cl)c(N)c5c4OCC5)CC3)CC2)c2c1CCO2
Efficacy ([1]; filed as agonist): 125%
EC50 [2]: 5.88 nM

Nc1c(Cl)cc(C(=O)NC2CCN(CCCC(=O)NCCOCCOCCNC(=O)NCCCCNC(=O)NCCOCCOCCNC(=O)CCCN3CCC(NC(=O)c4cc(Cl)c(N)c5c4OCC5)CC3)CC2)c2c1CCO2
Efficacy ([1]; filed as agonist): 92.4%
EC50 [2]: 2.33 nM

Nc1c(Cl)cc(C(=O)NC2CCN(CCC(=O)NCCCCCCCCNC(=O)NCCCCNC(=O)NCCCCCCCCNC(=O)CCN3CCC(NC(=O)c4cc(Cl)c(N)c5c4OCC5)CC3)CC2)c2c1CCO2
Efficacy ([1]; filed as agonist): 125%
EC50 [2]: 747 nM

Nc1c(Cl)cc(C(=O)NCC2CCN(CCC(=O)NCCOCCOCCNC(=O)NCCCCNC(=O)NCCOCCOCCNC(=O)CCN3CCC(CNC(=O)c4cc(Cl)c(N)c5c4OCC5)CC3)CC2)c2c1CCO2
Efficacy ([1]; filed as agonist): 107%
EC50 [2]: 0.4 nM
Ki [3]: 54.8 nM

Nc1c(Cl)cc(C(=O)NC2CCN(CCC(=O)NCCOCCOCCNC(=O)C3(C(=O)NCCOCCOCCNC(=O)CCN4CCC(NC(=O)c5cc(Cl)c(N)c6c5OCC6)CC4)CCC3)CC2)c2c1CCO2
Efficacy ([1]; filed as agonist): 122%
EC50 [2]: 8.05 nM

Nc1c(Cl)cc(C(=O)NC2CCN(CCC(=O)NCCOCCOCCNC(=O)Nc3ccc(NC(=O)NCCOCCOCCNC(=O)CCN4CCC(NC(=O)c5cc(Cl)c(N)c6c5OCC6)CC4)cc3)CC2)c2c1CCO2
Efficacy ([1]; filed as agonist): 89.8%
EC50 [2]: 10.5 nM

Nc1c(Cl)cc(C(=O)NC2CCN(CCC(=O)NCCOCCOCCNC(=O)N[C@H]3C[C@H](NC(=O)NCCOCCOCCNC(=O)CCN4CCC(NC(=O)c5cc(Cl)c(N)c6c5OCC6)CC4)C3)CC2)c2c1CCO2
Efficacy ([1]; filed as agonist): 115%
EC50 [2]: 2.66 nM

CC(C)(C(=O)NCCOCCOCCNC(=O)CCN1CCC(NC(=O)c2cc(Cl)c(N)c3c2OCC3)CC1)C(=O)NCCOCCOCCNC(=O)CCN1CCC(NC(=O)c2cc(Cl)c(N)c3c2OCC3)CC1
Efficacy ([1]; filed as agonist): 129%
EC50 [2]: 5.46 nM

Nc1c(Cl)cc(C(=O)NC2CCN(CCC(=O)NCCOCCOCCNC(=O)N3CC4(C3)CN(C(=O)NCCOCCOCCNC(=O)CCN3CCC(NC(=O)c5cc(Cl)c(N)c6c5OCC6)CC3)C4)CC2)c2c1CCO2
Efficacy ([1]; filed as agonist): 122%
EC50 [2]: 11.4 nM

Nc1c(Cl)cc(C(=O)NC2CCN(CCC(=O)NCCOCCOCCNC(=O)N3CCN(C(=O)NCCOCCOCCNC(=O)CCN4CCC(NC(=O)c5cc(Cl)c(N)c6c5OCC6)CC4)CC3)CC2)c2c1CCO2
Efficacy ([1]; filed as agonist): 127%
EC50 [2]: 7.08 nM

Nc1c(Cl)cc(C(=O)NC2CCN(CCC(=O)NCCOCCOCCOCCNC(=O)NCCCCNC(=O)NCCOCCOCCOCCNC(=O)CCN3CCC(NC(=O)c4cc(Cl)c(N)c5c4OCC5)CC3)CC2)c2c1CCO2
Efficacy ([1]; filed as agonist): 125%
EC50 [2]: 6.71 nM

Nc1c(Cl)cc(C(=O)NC2CCN(CCC(=O)NCCOCCOCCNC(=O)C3(C(=O)NCCOCCOCCNC(=O)CCN4CCC(NC(=O)c5cc(Cl)c(N)c6c5OCC6)CC4)CCCCC3)CC2)c2c1CCO2
Efficacy ([1]; filed as agonist): 116%
EC50 [2]: 3 nM

Nc1c(Cl)cc(C(=O)NC2CCN(CCC(=O)NCCOCCOCCNC(=O)N[C@H]3CC[C@@H](NC(=O)NCCOCCOCCNC(=O)CCN4CCC(NC(=O)c5cc(Cl)c(N)c6c5OCC6)CC4)CC3)CC2)c2c1CCO2
Efficacy ([1]; filed as agonist): 108%
EC50 [2]: 2.08 nM

Nc1c(Cl)cc(C(=O)NC2CCN(CCC(=O)NCCOCCNC(=O)NCCOCCNC(=O)CCN3CCC(NC(=O)c4cc(Cl)c(N)c5c4OCC5)CC3)CC2)c2c1CCO2
Efficacy ([1]; filed as agonist): 123%
EC50 [2]: 0.85 nM

Nc1c(Cl)cc(C(=O)NC2CCN(CCNCCOCCOCCNC(=O)N[C@H]3CCCC[C@@H]3NC(=O)NCCOCCOCCNC(=O)CCN3CCC(NC(=O)c4cc(Cl)c(N)c5c4OCC5)CC3)CC2)c2c1CCO2
Efficacy ([1]; filed as agonist): 85.6%
EC50 [2]: 3.1 nM

Nc1c(Cl)cc(C(=O)NC2CCN(CCC(=O)NCCCCCCCCNC(=O)NCCCCCCNC(=O)NCCCCCCCCNC(=O)CCN3CCC(NC(=O)c4cc(Cl)c(N)c5c4OCC5)CC3)CC2)c2c1CCO2
Efficacy ([1]; filed as agonist): 90.9%
EC50 [2]: 17.6 nM

Nc1c(Cl)cc(C(=O)NC2CCN(CCC(=O)NCCOCCOCCNC(=O)CCC(=O)NCCOCCOCCNC(=O)CCN3CCC(NC(=O)c4cc(Cl)c(N)c5c4OCC5)CC3)CC2)c2c1CCO2
Efficacy ([1]; filed as agonist): 116%
EC50 [2]: 4.71 nM

Nc1c(Cl)cc(C(=O)NC2CCN(CCNC(=O)CCOCCOCCNC(=O)NCCCCNC(=O)NCCOCCOCCNC(=O)CCN3CCC(NC(=O)c4cc(Cl)c(N)c5c4OCC5)CC3)CC2)c2c1CCO2
Efficacy ([1]; filed as agonist): 89.7%
EC50 [2]: 5.18 nM

Nc1c(Cl)cc(C(=O)NC2CCN(CCC(=O)NCCOCCOCCNC(=O)C3(C(=O)NCCOCCOCCNC(=O)CCN4CCC(NC(=O)c5cc(Cl)c(N)c6c5OCC6)CC4)CC3)CC2)c2c1CCO2
Efficacy ([1]; filed as agonist): 128%
EC50 [2]: 2.5 nM

Nc1c(Cl)cc(C(=O)NC2CCN(CCC(=O)NCCOCCOCCOCCNC(=O)NCCOCCOCCOCCNC(=O)CCN3CCC(NC(=O)c4cc(Cl)c(N)c5c4OCC5)CC3)CC2)c2c1CCO2
Efficacy ([1]; filed as agonist): 119%
EC50 [2]: 1.07 nM

COc1cc(N)c(Cl)cc1C(=O)NC1CCN(CCC(=O)NCCOCCOCCNC(=O)NCCCCNC(=O)NCCOCCOCCNC(=O)CCN2CCC(NC(=O)c3cc(Cl)c(N)cc3OC)CC2)CC1
Efficacy ([1]; filed as agonist): 102%
EC50 [2]: 43.6 nM

Nc1c(Cl)cc(C(=O)NC2CCN(CCC(=O)NCCOCCOCCNC(=O)NCCOCCOCCNC(=O)CCN3CCC(NC(=O)c4cc(Cl)c(N)c5c4OCC5)CC3)CC2)c2c1CCO2
Efficacy ([1]; filed as agonist): 103%
EC50 [2]: 0.95 nM

Nc1c(Cl)cc(C(=O)NC2CCN(CCC(=O)NCCOCCNC(=O)NCCCCNC(=O)NCCOCCNC(=O)CCN3CCC(NC(=O)c4cc(Cl)c(N)c5c4OCC5)CC3)CC2)c2c1CCO2
Efficacy ([1]; filed as agonist): 119%
EC50 [2]: 3.71 nM

Nc1c(Cl)cc(C(=O)NC2CCN(CCC(=O)NCCOCCOCCNC(=O)C(O)C(O)C(=O)NCCOCCOCCNC(=O)CCN3CCC(NC(=O)c4cc(Cl)c(N)c5c4OCC5)CC3)CC2)c2c1CCO2 (configuration not stated)
Efficacy ([1]; filed as agonist): 123%
EC50 [2]: 3.28 nM
